Test results reported in patent publication US11377442B2, “Small molecule agonists and antagonists of NR2F6 activity” (ZANDER THERAPEUTICS, INC., priority 2016, dated 2022).
Blank lines part the entries; values can stand above or below the compound they belong to.

Target: T1, NR2F6 (Homo sapiens, UniProt P10588)
T1 construct: expressed in transfected cells; also transient transfection
T1 sequence (P10588 1-404): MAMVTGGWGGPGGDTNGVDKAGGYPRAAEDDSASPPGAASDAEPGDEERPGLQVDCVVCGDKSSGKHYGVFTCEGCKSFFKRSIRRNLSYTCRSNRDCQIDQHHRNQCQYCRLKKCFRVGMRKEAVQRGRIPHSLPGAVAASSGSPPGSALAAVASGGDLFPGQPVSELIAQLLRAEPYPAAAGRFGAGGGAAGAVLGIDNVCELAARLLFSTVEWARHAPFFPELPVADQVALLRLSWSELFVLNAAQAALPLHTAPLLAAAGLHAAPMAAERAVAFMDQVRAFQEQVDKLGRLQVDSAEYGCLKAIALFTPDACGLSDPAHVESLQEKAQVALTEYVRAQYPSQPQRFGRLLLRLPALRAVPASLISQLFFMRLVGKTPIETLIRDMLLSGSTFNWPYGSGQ
Test: NR2F6 agonist screening, Firefly signal cmpd/DMSO
Assay type: cell-based
Conditions: for Firefly/Renilla (NR2F6 stable, clone F4): ratio Firefly/Renilla; for Firefly, NR2F6 stable (clone F4)/pGL4: ratio of Firefly in NR2F6 stable clone F4 to pGL4

[1] = C11 analogs follow set (Tables 2-10)

SMILES: Cc1ccc(S(=O)(=O)c2cc3cc(C(=O)Nc4cccc(C)c4C)ccc3oc2=O)cc1 [Compound C134]
Firefly, cmpd/DMSO repeat 1 [1]: 38.1
Firefly, cmpd/DMSO repeat 2 [1]: 31.9
Firefly/Renilla (NR2F6 stable, clone F4) (Table 12): 1.8
Firefly, NR2F6 stable (clone F4)/pGL4 (Table 12): 7.7
Firefly, cmpd/DMSO repeat 1 (Table 12): 38.1
Firefly, cmpd/DMSO repeat 2 (Table 12): 31.9

SMILES: Cc1cccc(NC(=O)c2ccc3oc(=O)c(S(=O)(=O)c4ccc(F)cc4)cc3c2)c1C [Compound C135]
Firefly, cmpd/DMSO repeat 1 [1]: 5.6
Firefly, cmpd/DMSO repeat 2 [1]: 4.9

SMILES: Cc1cccc(NC(=O)c2ccc3oc(=O)c(S(=O)(=O)c4ccc(Cl)cc4)cc3c2)c1C [Compound C136]
Firefly, cmpd/DMSO repeat 1 [1]: 22.1
Firefly, cmpd/DMSO repeat 2 [1]: 25.8
Firefly/Renilla (NR2F6 stable, clone F4) (Table 12): 1.7
Firefly, NR2F6 stable (clone F4)/pGL4 (Table 12): 8.1
Firefly, cmpd/DMSO repeat 1 (Table 12): 22.1
Firefly, cmpd/DMSO repeat 2 (Table 12): 25.8

SMILES: O=c1oc2ccc([N+](=O)[O-])cc2cc1S(=O)(=O)c1ccc(F)cc1 [Compound C137]
Firefly, cmpd/DMSO repeat 1 [1]: 22.6
Firefly, cmpd/DMSO repeat 2 [1]: 23.4
Firefly/Renilla (NR2F6 stable, clone F4) (Table 13): 1.4
Firefly, NR2F6 stable (clone F4)/pGL4 (Table 13): 8.4
Firefly, cmpd/DMSO repeat 1 (Table 13): 22.6
Firefly, cmpd/DMSO repeat 2 (Table 13): 23.4

SMILES: O=c1oc2ccc([N+](=O)[O-])cc2cc1S(=O)(=O)c1ccc(Br)cc1 [Compound C138]
Firefly, cmpd/DMSO repeat 1 [1]: 10.0
Firefly, cmpd/DMSO repeat 2 [1]: 16.6

SMILES: CC(C)(C)c1ccc(S(=O)(=O)c2cc3cc([N+](=O)[O-])ccc3oc2=O)cc1 [Compound C139]
Firefly, cmpd/DMSO repeat 1 [1]: 6.6
Firefly, cmpd/DMSO repeat 2 [1]: 6.4

SMILES: CC(C)c1ccc(S(=O)(=O)c2cc3cc(Cl)ccc3oc2=O)cc1 [Compound C140]
Firefly, cmpd/DMSO repeat 1 [1]: 12.8
Firefly, cmpd/DMSO repeat 2 [1]: 12.0

SMILES: Cc1ccc(S(=O)(=O)c2cc3cc(Cl)ccc3oc2=O)cc1C [Compound C143]
Firefly, cmpd/DMSO repeat 1 [1]: 15.2
Firefly, cmpd/DMSO repeat 2 [1]: 14.5

SMILES: COc1ccc2oc(=O)c(S(=O)(=O)c3ccc(C)c(C)c3)cc2c1 [Compound C144]
Firefly, cmpd/DMSO repeat 1 [1]: 0.9
Firefly, cmpd/DMSO repeat 2 [1]: 0.8

SMILES: O=c1oc2ccc(Cl)cc2cc1S(=O)(=O)c1ccc(Cl)cc1 [Compound C147]
Firefly, cmpd/DMSO repeat 1 [1]: 2.6
Firefly, cmpd/DMSO repeat 2 [1]: 2.9

SMILES: O=c1oc2ccc(Cl)cc2cc1S(=O)(=O)c1ccc(Cl)c(Cl)c1 [Compound C151]
Firefly, cmpd/DMSO repeat 1 [1]: 3.6
Firefly, cmpd/DMSO repeat 2 [1]: 5.5

SMILES: O=c1oc2ccc([N+](=O)[O-])cc2cc1S(=O)(=O)c1ccc(Cl)c(Cl)c1 [Compound C153]
Firefly, cmpd/DMSO repeat 1 [1]: 6.5
Firefly, cmpd/DMSO repeat 2 [1]: 9.0

SMILES: COc1ccc(S(=O)(=O)c2cc3cc(Br)ccc3oc2=O)cc1OC [Compound C154]
Firefly, cmpd/DMSO repeat 1 [1]: 35.4
Firefly, cmpd/DMSO repeat 2 [1]: 35.4
Firefly/Renilla (NR2F6 stable, clone F4) (Table 13): 1.6
Firefly, NR2F6 stable (clone F4)/pGL4 (Table 13): 9.1
Firefly, cmpd/DMSO repeat 1 (Table 13): 35.4
Firefly, cmpd/DMSO repeat 2 (Table 13): 35.4

The next lines start with the values.

Firefly, cmpd/DMSO repeat 1 [1]: 37.3
Firefly, cmpd/DMSO repeat 2 [1]: 33.3
Firefly/Renilla (NR2F6 stable, clone F4) (Table 12): 2.0
Firefly, NR2F6 stable (clone F4)/pGL4 (Table 12): 10.9
Firefly, cmpd/DMSO repeat 1 (Table 12): 37.3
Firefly, cmpd/DMSO repeat 2 (Table 12): 33.3
SMILES: COc1ccc(S(=O)(=O)c2cc3cc(Cl)ccc3oc2=O)cc1OC [Compound C155]

Firefly, cmpd/DMSO repeat 1 [1]: 1.0
Firefly, cmpd/DMSO repeat 2 [1]: 1.0
SMILES: COc1ccc2oc(=O)c(S(=O)(=O)c3ccc(OC)c(OC)c3)cc2c1 [Compound C156]

Firefly, cmpd/DMSO repeat 1 [1]: 1.5
Firefly, cmpd/DMSO repeat 2 [1]: 1.2
SMILES: COc1ccc2oc(=O)c(S(=O)(=O)c3ccc(F)c(Cl)c3)cc2c1 [Compound C158]

Firefly, cmpd/DMSO repeat 1 [1]: 0.9
Firefly, cmpd/DMSO repeat 2 [1]: 1.2
SMILES: O=C(Nc1ccc(F)cc1)c1ccc2oc(=O)c(S(=O)(=O)c3ccc(F)cc3)cc2c1 [Compound C159]

Firefly, cmpd/DMSO repeat 1 [1]: 22.9
Firefly, cmpd/DMSO repeat 2 [1]: 20.2
Firefly/Renilla (NR2F6 stable, clone F4) (Table 12): 2.4
Firefly, NR2F6 stable (clone F4)/pGL4 (Table 12): 7.2
Firefly, cmpd/DMSO repeat 1 (Table 12): 22.9
Firefly, cmpd/DMSO repeat 2 (Table 12): 20.2
SMILES: Cc1ccccc1NC(=O)c1ccc2oc(=O)c(S(=O)(=O)c3ccc(F)cc3)cc2c1 [Compound C160]

Firefly, cmpd/DMSO repeat 1 [1]: 35.4
Firefly, cmpd/DMSO repeat 2 [1]: 39.0
Firefly/Renilla (NR2F6 stable, clone F4) (Table 13): 1.3
Firefly, NR2F6 stable (clone F4)/pGL4 (Table 13): 8.1
Firefly, cmpd/DMSO repeat 1 (Table 13): 35.4
Firefly, cmpd/DMSO repeat 2 (Table 13): 39.0
SMILES: Cc1ccc(NC(=O)c2ccc3oc(=O)c(S(=O)(=O)c4ccccc4)cc3c2)cc1 [Compound C161]

Firefly, cmpd/DMSO repeat 1 [1]: 20.9
Firefly, cmpd/DMSO repeat 2 [1]: 20.6
SMILES: Cc1ccc(NC(=O)c2ccc3oc(=O)c(S(=O)(=O)c4ccc(C)cc4)cc3c2)cc1 [Compound C162]

Firefly, cmpd/DMSO repeat 1 [1]: 2.0
Firefly, cmpd/DMSO repeat 2 [1]: 5.2
SMILES: Cc1ccc(NC(=O)c2ccc3oc(=O)c(S(=O)(=O)c4ccc(F)cc4)cc3c2)cc1 [Compound C163]

Firefly, cmpd/DMSO repeat 1 [1]: 29.3
Firefly, cmpd/DMSO repeat 2 [1]: 19.6
Firefly/Renilla (NR2F6 stable, clone F4) (Table 12): 2.1
Firefly, NR2F6 stable (clone F4)/pGL4 (Table 12): 8.2
Firefly, cmpd/DMSO repeat 1 (Table 12): 29.3
Firefly, cmpd/DMSO repeat 2 (Table 12): 19.6
SMILES: Cc1ccc(NC(=O)c2ccc3oc(=O)c(S(=O)(=O)c4ccccc4)cc3c2)c(C)c1 [Compound C164]

Firefly, cmpd/DMSO repeat 1 [1]: 3.4
Firefly, cmpd/DMSO repeat 2 [1]: 4.2
SMILES: Cc1ccc(NC(=O)c2ccc3oc(=O)c(S(=O)(=O)c4ccc(Cl)cc4)cc3c2)c(C)c1 [Compound C166]

Firefly, cmpd/DMSO repeat 1 [1]: 1.0
Firefly, cmpd/DMSO repeat 2 [1]: 0.7
SMILES: Cc1ccc(NC(=O)c2ccc3oc(=O)c(S(=O)(=O)c4ccccc4)cc3c2)cc1C [Compound C167]

Firefly, cmpd/DMSO repeat 1 [1]: 11.8
Firefly, cmpd/DMSO repeat 2 [1]: 11.4
SMILES: Cc1ccc(S(=O)(=O)c2cc3cc(C(=O)Nc4ccc(C)c(C)c4)ccc3oc2=O)cc1 [Compound C168]

Firefly, cmpd/DMSO repeat 1 [1]: 8.8
Firefly, cmpd/DMSO repeat 2 [1]: 10.6
SMILES: Cc1ccc(NC(=O)c2ccc3oc(=O)c(S(=O)(=O)c4ccc(F)cc4)cc3c2)cc1C [Compound C169]

Firefly, cmpd/DMSO repeat 1 [1]: 1.7
Firefly, cmpd/DMSO repeat 2 [1]: 1.6
SMILES: Cc1ccc(NC(=O)c2ccc3oc(=O)c(S(=O)(=O)c4ccc(Cl)cc4)cc3c2)cc1C [Compound C170]

Firefly, cmpd/DMSO repeat 1 [1]: 6.4
Firefly, cmpd/DMSO repeat 2 [1]: 4.2
SMILES: Cc1ccc(S(=O)(=O)c2cc3cc(C(=O)Nc4cccc(C)c4)ccc3oc2=O)cc1 [Compound C171]

Firefly, cmpd/DMSO repeat 1 [1]: 9.8
Firefly, cmpd/DMSO repeat 2 [1]: 6.9
SMILES: Cc1cccc(NC(=O)c2ccc3oc(=O)c(S(=O)(=O)c4ccc(Cl)cc4)cc3c2)c1 [Compound C173]

Firefly, cmpd/DMSO repeat 1 [1]: 5.8
Firefly, cmpd/DMSO repeat 2 [1]: 14.3
SMILES: Cc1cc(C)cc(NC(=O)c2ccc3oc(=O)c(S(=O)(=O)c4ccccc4)cc3c2)c1 [Compound C174]

Firefly, cmpd/DMSO repeat 1 [1]: 13.2
Firefly, cmpd/DMSO repeat 2 [1]: 11.9
Firefly/Renilla (NR2F6 stable, clone F4) (Table 13): 1.1
Firefly, NR2F6 stable (clone F4)/pGL4 (Table 13): 5.7
Firefly, cmpd/DMSO repeat 1 (Table 13): 13.2
Firefly, cmpd/DMSO repeat 2 (Table 13): 11.9
SMILES: Cc1ccc(S(=O)(=O)c2cc3cc(C(=O)Nc4cc(C)cc(C)c4)ccc3oc2=O)cc1 [Compound C175]

Firefly, cmpd/DMSO repeat 1 [1]: 3.7
Firefly, cmpd/DMSO repeat 2 [1]: 9.6
SMILES: Cc1cc(C)cc(NC(=O)c2ccc3oc(=O)c(S(=O)(=O)c4ccc(F)cc4)cc3c2)c1 [Compound C176]
